The values that follow come from US5627143A, “Wellbore fluid” (Dowell Schlumberger Incorporated, priority 1993, dated 1997).

Format in all cases: physicochemical
Data set [1] can be described thus: Example 5: visible fluorescence under ultraviolet illumination. From the text:
A sample of C14-16 linear alphaolefin was placed under ultraviolet illumination and its visible fluorescence noted. The fluorescence was compared to that of some other known base oils.

Data set [2] in a line: Pour point of base oils. An excerpt:
(§1) Some properties of alk-1-enes of carbon number between 12 and 20 are shown in Table 1 (which appears at the end of this description) and compared with an ester oil, a linear alkyl benzene, and a polyalphaolefin.

A short description of data set [3]: Kinematic viscosity (KV) of base oils.
Description: KV: The kinematic viscosity of an oil in centistokes.
as §1

The nature of data set [4]: Flash point of base oils.
Description: as §1

Read-outs that look alike come from different tables or passages of the source.

`CCCCCCCC/C=C\CCCCCCCC(=O)OCC(CC)CCCC` (stereo not drawn) [2-ethylhexyl oleate]: in data set [1] (continued lines of the cell), the “Fluorescence (colour)” value is given as “white”. For the same molecule, the “Fluorescence (intensity)” value in data set [1] (first printed line of the cell) was “Medium”.

Take `C=CCCCCCCCCCC` [C12]: the “Pour Point” value in data set [2] was -35 °C. Also, the “KV at 40° C.” value in data set [3] is 1.29 Cst. Moreover, the “Flash Point” value in data set [4] is 77 °C.

On to `C=CCCCCCCCCCCCC` [C14], for which the “Pour Point” value in data set [2] is -13 °C. Besides, the “KV at 40° C.” value in data set [3] (40° C.) came out at 1.85 Cst. Further, in data set [4], the “Flash Point” value was 107 °C.

As to `C=CCCCCCCCCCCCCCC` [C16], in data set [2], the “Pour Point” value is “+4 °C”. For the same molecule, the “KV at 40° C.” value in data set [3] was determined as 2.62 Cst.

On to `C=CCCCCCCCCCCCCCCCC` [C18], for which the “Pour Point” value in data set [2] was “+18 °C”. The “KV at 40° C.” value in data set [3] (40° C.) is reported as 3.59 Cst.
